Data from patent US11224582B2, “Amino acid formulations for pancreatic viability” (Almeda Labs LLC, priority 2017, dated 2022).
“Also recorded” adds a separate entry of the source.

Legend:
rat islets [1] = assay: Islet survival (number of islets over time in culture); type: cell-based
Source text: The objective of the experiment was to test the effect of long-term exposure of rat islets to Amino Acid Formulation #1 and compare those results to the currently-marketed amino acid, cysteine. A group without added amino acids was used as a control group. The comparison was based on the number of dead cells within islets over time, a count of the number of islets surviving over time, and the functional test of cellular metabolism after long-term exposure.
Rat islets were isolated from the pancreata of female animals under approved protocol and SOPs. […] The imaging capabilities of the Cytation plate reader was utilized for survival values.
All groups began with the same number of total islets per group.

rat islets [2] = assay: Dithizone staining / light microscopy of rat islets; type: cell-based; settings: day 1
Source text: Islets were exposed to a single dose of Amino Acid Formulation #1 or cysteine for 11 days. FIG. 1 illustrates images of islets from each condition on day 1, stained with dithizone, which identifies islet cells via dark red color.
In the control media, the same was found.

[3] = test system: human beta-cell line (INS-1 832/13); assay: Viability assay (PrestoBlue) of beta-cell line with single amino acids, double crosses and blends, Example 4; settings: for effect of single amino acid on cell viability: 5-hour exposure in PBS; for effect on cell viability in single / double crosses: each amino acid at 1 mg/mL; for effect on cell viability at the highest doses / higher concentrations: single amino acids
Procedure: The human beta-cell line (INS-1 832/13) was expanded and maintained in RPMI-1640 growth media during expansion. Cells were grown and sustained in T75 cell culture flasks in an incubator at 37° C. and 5% CO2. Cells were passaged every 4th day via trypsinization. All cell media changes and passage work was done under a biosafety hood to ensure sterility of the cultures. Readings were obtained from the EnSpire Multimode Plate Reader (Perkin Elmer) with excitation of 560 nm and emission of 590 nm. To avoid plate edge effects the outer wells of each plate were used as blanks.
The INS-1 832/13 cell line, a derivation of the INS-1 cell line, was cultured in a growth medium consisting of RPMI-1640, along with 1 M HEPES buffer solution, 50×INS supplement (glutamine, Na-pyruvate, and B-mercaptoethanol), Antibiotic-Antimycotic (Gibco by LifeTechnologies), and Fetal Bovine Serum (HyClone). Cells were grown and sustained in a T75 cell culture flask. The cells were placed in a humidified incubator at 37° C. and 5% CO2. Due to the rapid growth of these cells, media was changed on every second day and passaged on every fourth day via trypsinization. When cells were confluent, they were exposed to amino acids as described below.
Pilot studies were undertaken with 6 single amino acids to determine the optimal conditions for cell testing, and the optimal time for exposure to the amino acids. […] Thus, a second trial was undertaken removing the media and placing cells in phosphate buffered saline at the time of the amino acid addition. […] Thus, the optimal conditions were determined to be a 5-hour exposure to the amino acids in PBS.
For the full study, cells plated in 384-well plates were exposed to individual amino acids at 10 full-log doses for 4 hours at 37° C. and 5% CO2. PrestoBlue (10%) was added to each well using the Hamilton Star Automated Fluid Handling System, and 1 hour later, for a total of 5 hours of exposure to the amino acids.
The plates were loaded into the EnSpire plate reader with excitation of 560 nm and emission of 590 nm excitation wavelengths.
Amino acids were added to a minimal buffer in full log concentrations starting at 1E−08 through 10 mg/mL. […] In the graph, the data have been normalized to cell viability in minimal buffer with no amino acids (100%).
Thus, a concentration of 1 mg/mL of a single amino acid is actually a 5 mg/mL of the full blend, because there are 5 different amino acids in each blend mixed in equal amounts.

[4] = Dissolution of test articles in RPMI working solutions; type: physicochemical; settings: 1 g/1 L in RPMI, after 24 hours at 37° C.
Procedure: The working solutions contained 1 g/1 L concentration of Amino Acid Formulation #1 or cysteine alone prepared in RPMI. […] The working medium was kept at 37° C. in incubator with islets.

rat islets [5] = assay: Viability assay of rat islets (Yo-Pro / propidium iodide staining); type: cell-based; settings: for Apoptotic Cells (%) / Live Cells (%) / Necrotic Cells (%): 1 g/L in RPMI, 11.6 mM glucose
Procedure: During the long-term (11 day) exposure, the islets were administered Amino Acid Formulation #1 or cysteine (at the same concentration) or culture media with no added amino acids.
Isolated rat islets were cultured in 100 cm^2 cell culture plates (untreated) in 20 ml of Roswell Park Memorial Institute (RPMI) media. […] Islets were removed from the dish and placed in 50 ml tubes. Islets were allowed time to settle to the bottom of the tube. The excess media was removed, and the islets were moved to microcentrifuge tubes, and DPBS solution was added to each tube. Cells were washed and fresh DPBS added.
Islets had media changed every 2 days with continuous exposure to Amino Acid Formulation #1, Cysteine alone, or media alone. Amino Acid Formulation #1 was prepared in the lab using amino acid capsules: […]
The working solutions contained 1 g/1 L concentration of Amino Acid Formulation #1 or cysteine alone prepared in RPMI.
25-50 islets were removed from the dishes and placed in 50 ml tubes. Islets were allowed time to settle to the bottom of the tube. The excess media was removed, and the islets were moved to microcentrifuge tubes, and DPBS solution was added to each tube. Cells were washed and fresh DPBS added. Propidium iodide and yo-pro were added to the tubes at a ratio of 1 μl reagent to 1 ml cells in DPBS.
Individual wells of 96-well plates were manually loaded with 10-15 islets each and checked visually under a microscope for consistency between wells. 30 minutes later, the plates were loaded into the BioTeck plate reader with readings for Yo-Pro and Propidium iodide with additional verification of islet tissue using dithizone staining.
Results were saved as images for later cellular analysis.
All islets identified in each condition were scored for the percent area of apoptotic and necrotic cells. The remaining percentage was calculated as live cells.

Compound: N[C@@H](CS)C(=O)O [Cysteine, L-Cysteine]
- islets found in the group (rat islets [1]; day 8): No islets could be identified; also recorded: no live islets could be found
- islet survival time in culture (rat islets [1]; no islets survived past this time): ≤ 6 days
- number of islets as % of the Amino Acid Formulation #1 group (rat islets [1]; within 24 hours of exposure): 78%
- islets with core cell death (rat islets [2]): approximately 30%
- effect of single amino acid on cell viability ([3]; 0.01 mg/mL and higher): positive impact on cell viability
- effect on cell viability in single / double crosses [3]: most positive effect on cell health
- effect on cell viability at the highest doses / higher concentrations [3]: improve viability at the higher concentrations tested
- undissolved crystals in working solution [4]: still had microscopic crystals that had not gone completely into solution
- route of cell death (apoptosis / necrosis) (rat islets [5]): both apoptosis and necrosis
- cell death (Yo-Pro and Propidium Iodide staining) (rat islets [5]; 24 hours exposure, compared with control and Formulation #1): greater than the other 2
- Apoptotic Cells (%) (rat islets [5]; Day 1): 18.2 + 21.3%
- Live Cells (%) (rat islets [5]; Day 1): 58.4 ± 33.4 %
- Necrotic Cells (%) (rat islets [5]; Day 1): 23.4 ± 20.4%
- Apoptotic Cells (%) (rat islets [5]; Day 4): 47.1 ± 35.9%
- Live Cells (%) (rat islets [5]; Day 4): 42.0 ± 39.8 %
- Necrotic Cells (%) (rat islets [5]; Day 4): 10.9 + 13.4%
- viability compared with the other groups (rat islets [5]; days 1, 4 and 8): significantly lower viability than the other two groups

Compound: N=C(N)NCCC[C@H](N)C(=O)O [arginine, L-Arginine]
- effect on cell viability in single / double crosses [3]: decrease in cell viability when added to any other amino acid
- effect on cell viability at the highest doses / higher concentrations [3]: negative effects on cell viability at the highest doses
- effect of single amino acid on cell viability ([3]; starting at 1 mg/mL): dramatic reductions in the viability

Compound: NC(=O)C[C@H](N)C(=O)O [asparagine, L-Asparagine]
- cells left in the dish that were alive ([3]; double cross: another 1 mg/mL of asparagine added to 1 mg/mL asparagine): 18%
- effect on cell viability in single / double crosses [3]: dramatic reduction in beta cell viability
- effect on cell viability at the highest doses / higher concentrations [3]: negative effects on cell viability at the highest doses
- effect of single amino acid on cell viability ([3]; starting at 1 mg/mL): dramatic reductions in the viability

Compound: N[C@@H](Cc1c[nH]cn1)C(=O)O [histidine, L-Histidine]
- effect on cell viability in single / double crosses [3]: very little effect on cell viability except when paired with asparagine or arginine
- cells killed (fraction, words) ([3]; single amino acid, high doses (from 1 mg/mL)): approximately half
- effect of single amino acid on cell viability ([3]; starting at 1 mg/mL): dramatic reductions in the viability

Compound: N[C@@H](CO)C(=O)O [serine, L-Serine]
- effect of single amino acid on cell viability ([3]; 10 mg/mL): slightly positive increases in viability

Compound: C[C@@H](O)[C@H](N)C(=O)O [threonine, L-Threonine]
- effect of single amino acid on cell viability ([3]; 10 mg/mL): slightly positive increases in viability
